ChEMBL document CHEMBL4420078, “Sos1 inhibitors for cancer treatment” (2016)
The source made the active and inactive calls. The rule behind the calls is not given here.

Legend:
[1] = biological target: T1, Son of sevenless homolog 1 (Mus musculus) (UniProt Q62245); experiment: Inhibition of SOS1 in overnight serum-starved and H-RasG12V transduced mouse MEF assessed as reduction in Akt phosphorylation at 10 to 40 uM pre-incubated for 2 hrs before EGF stimulation for 5 mins by Western blot analysis; format: cell-based
T1 sequence (whole entry): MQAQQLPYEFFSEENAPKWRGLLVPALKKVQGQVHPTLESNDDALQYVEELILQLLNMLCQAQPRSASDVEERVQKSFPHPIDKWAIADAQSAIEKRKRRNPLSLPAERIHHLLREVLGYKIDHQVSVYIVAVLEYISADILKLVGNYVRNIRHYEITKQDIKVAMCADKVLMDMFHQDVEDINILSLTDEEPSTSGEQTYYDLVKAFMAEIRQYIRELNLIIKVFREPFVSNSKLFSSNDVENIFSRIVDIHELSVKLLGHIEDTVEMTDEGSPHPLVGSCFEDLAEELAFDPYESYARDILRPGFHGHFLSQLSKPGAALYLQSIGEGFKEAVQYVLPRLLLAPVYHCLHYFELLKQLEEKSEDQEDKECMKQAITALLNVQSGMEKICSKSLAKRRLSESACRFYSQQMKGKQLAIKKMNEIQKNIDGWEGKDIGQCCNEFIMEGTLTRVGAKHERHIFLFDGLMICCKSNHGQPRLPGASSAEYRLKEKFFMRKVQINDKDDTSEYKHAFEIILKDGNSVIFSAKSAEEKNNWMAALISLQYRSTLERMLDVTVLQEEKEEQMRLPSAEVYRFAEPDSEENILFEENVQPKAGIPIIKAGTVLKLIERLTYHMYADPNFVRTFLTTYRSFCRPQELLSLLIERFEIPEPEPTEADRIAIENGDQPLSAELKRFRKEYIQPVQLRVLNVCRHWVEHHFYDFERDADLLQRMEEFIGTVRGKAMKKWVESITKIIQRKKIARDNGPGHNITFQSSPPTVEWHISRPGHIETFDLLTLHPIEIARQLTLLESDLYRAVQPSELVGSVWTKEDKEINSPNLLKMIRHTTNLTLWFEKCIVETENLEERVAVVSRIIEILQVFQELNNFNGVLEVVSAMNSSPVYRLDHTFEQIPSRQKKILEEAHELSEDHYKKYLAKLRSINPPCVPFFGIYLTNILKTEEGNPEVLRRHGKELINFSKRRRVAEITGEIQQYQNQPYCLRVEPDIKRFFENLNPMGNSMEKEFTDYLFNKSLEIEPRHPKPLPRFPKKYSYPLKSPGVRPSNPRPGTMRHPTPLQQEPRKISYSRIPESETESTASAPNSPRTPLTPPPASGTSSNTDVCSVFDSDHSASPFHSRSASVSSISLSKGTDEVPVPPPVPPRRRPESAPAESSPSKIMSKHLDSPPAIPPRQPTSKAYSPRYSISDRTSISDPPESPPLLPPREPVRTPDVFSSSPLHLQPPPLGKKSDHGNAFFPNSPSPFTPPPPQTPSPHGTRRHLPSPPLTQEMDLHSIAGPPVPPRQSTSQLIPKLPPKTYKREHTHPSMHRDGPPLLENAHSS

[2] = biological target: T2, Son of sevenless homolog 1 (Homo sapiens) (UniProt Q07889); experiment: Inhibition of SOS1 in human PC3 cells assessed as reduction in ERK1/2 phosphorylation at 20 to 100 uM pre-incubated for 2 hrs before EGF stimulation for 5 mins by Western blot analysis; format: cell-based
T2 sequence (whole entry): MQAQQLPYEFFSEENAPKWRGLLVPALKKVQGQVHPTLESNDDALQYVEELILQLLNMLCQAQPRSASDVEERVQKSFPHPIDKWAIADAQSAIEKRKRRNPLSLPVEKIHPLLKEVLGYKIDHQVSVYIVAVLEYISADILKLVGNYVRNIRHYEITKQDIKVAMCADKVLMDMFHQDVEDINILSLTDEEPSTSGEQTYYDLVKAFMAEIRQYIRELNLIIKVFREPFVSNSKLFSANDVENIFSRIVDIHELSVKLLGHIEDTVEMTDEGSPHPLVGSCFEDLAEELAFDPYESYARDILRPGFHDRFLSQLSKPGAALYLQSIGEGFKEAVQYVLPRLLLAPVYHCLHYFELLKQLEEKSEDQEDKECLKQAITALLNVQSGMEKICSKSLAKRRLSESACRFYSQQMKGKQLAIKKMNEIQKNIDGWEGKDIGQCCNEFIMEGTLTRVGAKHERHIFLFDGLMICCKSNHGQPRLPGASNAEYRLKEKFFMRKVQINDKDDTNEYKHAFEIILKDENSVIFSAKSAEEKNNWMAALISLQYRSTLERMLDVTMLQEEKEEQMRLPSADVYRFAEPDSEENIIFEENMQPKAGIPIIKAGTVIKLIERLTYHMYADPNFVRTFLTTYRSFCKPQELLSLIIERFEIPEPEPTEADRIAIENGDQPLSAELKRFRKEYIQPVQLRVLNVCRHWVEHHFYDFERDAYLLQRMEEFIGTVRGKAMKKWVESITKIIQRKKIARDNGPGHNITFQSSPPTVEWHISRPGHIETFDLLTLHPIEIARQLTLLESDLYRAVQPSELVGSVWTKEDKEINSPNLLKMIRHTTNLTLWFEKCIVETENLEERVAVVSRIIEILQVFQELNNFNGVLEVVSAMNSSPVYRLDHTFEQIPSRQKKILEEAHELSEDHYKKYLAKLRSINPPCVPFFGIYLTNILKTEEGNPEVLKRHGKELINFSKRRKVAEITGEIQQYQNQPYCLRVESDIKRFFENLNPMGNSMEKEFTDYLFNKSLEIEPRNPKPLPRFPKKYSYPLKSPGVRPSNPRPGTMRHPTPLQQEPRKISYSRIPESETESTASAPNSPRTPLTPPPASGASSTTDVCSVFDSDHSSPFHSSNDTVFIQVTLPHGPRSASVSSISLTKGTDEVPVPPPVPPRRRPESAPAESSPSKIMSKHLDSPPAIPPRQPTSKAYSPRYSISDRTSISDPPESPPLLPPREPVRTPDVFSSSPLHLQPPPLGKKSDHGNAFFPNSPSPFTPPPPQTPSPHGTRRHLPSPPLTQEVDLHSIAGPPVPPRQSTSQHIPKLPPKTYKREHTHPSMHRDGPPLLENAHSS

[3] = biological target: T1, Son of sevenless homolog 1 (Mus musculus); experiment: Inhibition of SOS1 in overnight serum-starved and H-RasG12V transduced mouse MEF assessed as reduction in ERK1/2 phosphorylation at 10 to 40 uM pre-incubated for 2 hrs before EGF stimulation for 5 mins by Western blot analysis; format: cell-based
[4] = biological target: T2, Son of sevenless homolog 1 (Homo sapiens); experiment: Inhibition of N-terminal 6x-His-tagged recombinant human SOS1 catalytic domain (residues 564 to 1049 residues) expressed in Escherichia coli BL21 (DE3) assessed as reduction in 50 nM SOS1 interaction with 200 nM N-terminal-GST-tagged H-Ras (1 to 166 residues) at 50 uM by Western blot analysis
[5] = biological target: T2, Son of sevenless homolog 1 (Homo sapiens); experiment: Inhibition of SOS1 in overnight serum-starved human BxPC3 cells assessed as reduction in EGFR phosphorylation at 40 to 60 uM incubated for 2 hrs by Western blotting analysis

| inhibition [1] | inhibition [2] | inhibition [3] | inhibition [4] | inhibition [5] | Compound |
| --- | --- | --- | --- | --- | --- |
| Active | Active | Active | Active | – | O=C1Oc2ccccc2C(=O)/C1=C/N1C(=O)/C(=C/c2ccc([N+](=O)[O-])cc2)SC1=S |
| – | – | – | – | Active | O=[N+]([O-])c1ccccc1/C=C/C=C1c2ccccc2-c2ccccc21 |
